This note sets out measurements from ChEMBL document CHEMBL1268872 (Bioorg Med Chem Lett, 2010).

Molecules are shown by their SMILES.

Assay [1] addresses T1, Mitogen-activated protein kinase 14 (Homo sapiens, UniProt Q16539). Nature of the assay: Binding affinity to unphosphorylated p38alpha assessed as change in melting temperature.
The target of assay [2] is T1, Mitogen-activated protein kinase 14. Nature of the assay: Binding affinity to phosphorylated p38alpha assessed as change in melting temperature.
The target is the same in assay [3]. Nature of the assay: Binding affinity to unphosphorylated p38alpha by fluoroprobe binding assay.
For assay [4] the target is unchanged. Nature of the assay: Binding affinity to phosphorylated p38alpha by fluoroprobe binding assay.
In assay [5] the target is T2, Ephrin type-B receptor 2 (Homo sapiens, UniProt P29323).
T2 sequence (P29323 whole entry): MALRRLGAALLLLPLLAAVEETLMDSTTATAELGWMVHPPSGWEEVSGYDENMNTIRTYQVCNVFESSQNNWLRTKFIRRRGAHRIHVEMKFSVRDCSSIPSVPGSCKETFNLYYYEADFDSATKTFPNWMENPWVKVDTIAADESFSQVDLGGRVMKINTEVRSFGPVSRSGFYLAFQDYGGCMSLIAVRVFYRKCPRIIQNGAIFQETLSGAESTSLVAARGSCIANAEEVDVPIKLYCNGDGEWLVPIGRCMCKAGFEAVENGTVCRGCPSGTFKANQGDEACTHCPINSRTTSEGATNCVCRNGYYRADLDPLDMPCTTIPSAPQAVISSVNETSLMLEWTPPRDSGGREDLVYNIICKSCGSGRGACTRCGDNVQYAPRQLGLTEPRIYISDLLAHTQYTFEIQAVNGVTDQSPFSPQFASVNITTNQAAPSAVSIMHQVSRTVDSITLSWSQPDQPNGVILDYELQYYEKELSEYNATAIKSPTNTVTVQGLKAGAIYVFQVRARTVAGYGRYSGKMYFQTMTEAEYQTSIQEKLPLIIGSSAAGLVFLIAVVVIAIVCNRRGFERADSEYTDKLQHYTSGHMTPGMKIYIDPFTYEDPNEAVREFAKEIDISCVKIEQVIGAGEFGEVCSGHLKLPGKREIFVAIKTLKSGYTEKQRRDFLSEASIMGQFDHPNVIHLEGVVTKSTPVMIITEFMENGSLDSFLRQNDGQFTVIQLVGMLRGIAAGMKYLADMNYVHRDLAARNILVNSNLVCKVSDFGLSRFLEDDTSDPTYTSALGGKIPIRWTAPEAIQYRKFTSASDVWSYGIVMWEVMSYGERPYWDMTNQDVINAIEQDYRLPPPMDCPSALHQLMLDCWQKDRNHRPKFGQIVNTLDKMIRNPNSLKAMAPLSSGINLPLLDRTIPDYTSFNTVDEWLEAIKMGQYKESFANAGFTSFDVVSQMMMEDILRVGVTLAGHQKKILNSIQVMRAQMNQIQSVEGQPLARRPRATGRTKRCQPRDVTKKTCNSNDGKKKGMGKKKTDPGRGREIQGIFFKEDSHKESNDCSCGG
In words: Inhibition of EPHB2.

Assay [6] deals with Serine/threonine-protein kinase B-raf (Homo sapiens, UniProt P15056). Nature of the assay: Inhibition of BRAF.
Serine/threonine-protein kinase B-raf, sequence (P15056 whole entry): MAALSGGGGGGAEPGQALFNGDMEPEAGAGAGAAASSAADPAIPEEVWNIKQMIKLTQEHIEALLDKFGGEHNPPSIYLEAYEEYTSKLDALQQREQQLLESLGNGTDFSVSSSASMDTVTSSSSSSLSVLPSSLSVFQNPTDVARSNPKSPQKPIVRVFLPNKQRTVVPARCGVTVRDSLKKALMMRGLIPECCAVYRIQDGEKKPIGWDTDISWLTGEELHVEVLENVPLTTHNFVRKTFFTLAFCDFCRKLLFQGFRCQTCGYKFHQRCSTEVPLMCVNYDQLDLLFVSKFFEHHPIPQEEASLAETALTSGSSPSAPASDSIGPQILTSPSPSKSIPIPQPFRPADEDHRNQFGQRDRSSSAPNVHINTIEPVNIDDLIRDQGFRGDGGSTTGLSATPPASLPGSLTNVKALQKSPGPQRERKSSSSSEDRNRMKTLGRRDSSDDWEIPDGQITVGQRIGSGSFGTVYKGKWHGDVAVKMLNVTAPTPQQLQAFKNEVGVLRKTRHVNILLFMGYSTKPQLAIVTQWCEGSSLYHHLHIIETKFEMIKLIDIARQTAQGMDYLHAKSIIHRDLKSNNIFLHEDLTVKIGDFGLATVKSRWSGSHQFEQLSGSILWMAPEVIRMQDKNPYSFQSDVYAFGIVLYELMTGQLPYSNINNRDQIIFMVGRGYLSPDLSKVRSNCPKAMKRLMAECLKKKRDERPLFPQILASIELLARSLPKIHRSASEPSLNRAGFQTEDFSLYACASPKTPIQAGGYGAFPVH
Assay [7] deals with T1, Mitogen-activated protein kinase 14. In words: Inhibition of p38alpha by fluoroprobe binding assay.
Assay [8] has the same target. Nature of the assay: Inhibition of p38alpha autophosphorylation.

T1 sequence (Q16539 whole entry): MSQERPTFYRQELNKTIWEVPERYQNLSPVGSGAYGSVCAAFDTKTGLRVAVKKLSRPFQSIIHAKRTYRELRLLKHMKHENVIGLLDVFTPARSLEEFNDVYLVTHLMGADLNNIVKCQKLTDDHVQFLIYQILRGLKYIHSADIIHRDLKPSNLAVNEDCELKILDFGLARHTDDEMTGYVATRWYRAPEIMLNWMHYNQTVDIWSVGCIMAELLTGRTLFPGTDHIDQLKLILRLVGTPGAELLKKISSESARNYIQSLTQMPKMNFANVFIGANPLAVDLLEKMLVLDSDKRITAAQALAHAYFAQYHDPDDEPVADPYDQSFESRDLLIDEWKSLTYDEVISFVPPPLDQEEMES

On to `CC(C)(C)c1cc(NC(=O)Nc2cccc3ccccc23)n(-c2cccc(CC(N)=O)c2)n1`, for which the shift in melting temperature (ΔTm) in assay [1] is 9.1 °C; in assay [2] it was 8.6 °C.

Take `NC(=O)Cc1cccc(-n2nc(-c3ccccc3F)cc2NC(=O)Nc2cccc(Cl)c2Cl)c1`: the thermal shift (ΔTm) in assay [1] worked out at 8.8 °C; in assay [2] it was 7.1 °C. Besides, the figures for the IC50 in assay [3] and in assay [4] were 25 nM and 40 nM, respectively.

Regarding `NC(=O)Cc1cccc(-n2nc(C3CCCC3)cc2NC(=O)Nc2cccc(Cl)c2Cl)c1`, the ΔTm in assay [1] stood at 12.2 °C. In assay [4], this compound gave a 50% inhibitory concentration (IC50) of 10 nM.

With `CC(C)(C)c1cc(NC(=O)Nc2cccc(Cl)c2Cl)n(-c2cccc(CC(N)=O)c2)n1`, the IC50 in assay [5] was determined as 82 nM; in assay [6] it was 17 nM. Also, the ΔTm in assay [1] turned out to be 12.8 °C; in assay [2] it was 9.1 °C.

Turning to `CC(C)(C)c1cc(NC(=O)Nc2cccc3ccccc23)n(-c2cccc(C(=O)N3C(=O)OC[C@@H]3c3ccccc3)c2)n1`, in assay [7], the 50% inhibitory concentration (IC50) was over 10000 nM.

As to `NC(=O)Cc1cccc(-n2nc(-c3ccsc3)cc2NC(=O)Nc2cccc(Cl)c2Cl)c1`, the ΔTm in assay [1] worked out at 11.6 °C; in assay [2], 9.3 °C. For the same compound, the concentration for half-maximal inhibition (IC50) is 15 nM in assay [3] and 28 nM in assay [4].

As to `NC(=O)Cc1cccc(-n2nc(-c3ccccc3)cc2NC(=O)Nc2cccc(Cl)c2Cl)c1`, the results for the ΔTm in assay [1] and in assay [2] were 8 °C and 5.4 °C, respectively. The IC50 was 119 nM in assay [3] and 79 nM in assay [4].

For `NC(=O)Cc1cccc(-n2nc(-c3cccs3)cc2NC(=O)Nc2cccc(Cl)c2Cl)c1`, the results for the half-maximal inhibitory concentration (IC50) in assay [5], in assay [4] and in assay [8] were over 50000 nM, 66 nM and over 5000 nM, respectively. The ΔTm in assay [1] was found to be 11.2 °C; in assay [2], 8.5 °C.

In assay [7], `CC(C)(C)c1cc(NC(=O)Nc2cccc(Cl)c2Cl)n(-c2ccc(CC(=O)N3CCS(=O)(=O)CC3)cc2)n1` had an IC50 of 7 nM.

The term ΔTm denotes the change in melting temperature against a reference sample. What is called IC50 is the midpoint of a concentration-inhibition curve. A higher IC50 goes with a need for much substance.
